Consider seven molecules from ChEMBL document CHEMBL5584255, “Synthesis and antibacterial medicinal evaluation of carbothioamido hydrazonyl thiazolylquinolone with multitargeting antimicrobial potential to combat increasingly global resistance” (Eur J Med Chem, 2024).

What all share (format): functional
The test system of assay [1] is Staphylococcus aureus. The assay can be described thus: Antibacterial activity against Staphylococcus aureus ATCC 29213 by microbroth dilution method.
Another assay deals with Acinetobacter baumannii. The assay can be described thus: Antibacterial activity against Acinetobacter baumannii by microbroth dilution method.
Assay [2] deals with Staphylococcus aureus. Kind of assay: Antibacterial activity against Staphylococcus aureus ATCC 25923 by microbroth dilution method.
Assay [3] relates to Staphylococcus aureus. Kind of assay: Antibacterial activity against methicillin-resistant Staphylococcus aureus N315 by microbroth dilution method.
The next assay relates to Enterococcus faecalis. The assay can be described thus: Antibacterial activity against drug-resistant Enterococcus faecalis by microbroth dilution method.
Assay [4] relates to Escherichia coli. Kind of assay: Antibacterial activity against Escherichia coli ATCC 25922 by microbroth dilution method.
Assay [5] concerns Staphylococcus aureus. The assay can be described thus: Induction of resistance development in Staphylococcus aureus measured after 4 passages.
The subject of assay [6] is Pseudomonas aeruginosa. The assay can be described thus: Antibacterial activity against Pseudomonas aeruginosa by microbroth dilution method.
A further assay deals with Klebsiella pneumoniae. The assay can be described thus: Antibacterial activity against Klebsiella pneumoniae by microbroth dilution method.
Assay [7] has as its system Escherichia coli. The assay can be described thus: Antibacterial activity against drug-resistant Escherichia coli by microbroth dilution method.
The subject of assay [8] is Pseudomonas aeruginosa. The assay can be described thus: Antibacterial activity against Pseudomonas aeruginosa ATCC 27853 by microbroth dilution method.
Assay [9] concerns Staphylococcus aureus. Kind of assay: Antibacterial activity against drug-resistant Staphylococcus aureus by microbroth dilution method.
For another assay, the system named is Candida tropicalis. The assay can be described thus: Antifungal activity against drug-resistant Candida tropicalis.
The subject of a further assay is Candida parapsilosis. Kind of assay: Antifungal activity against Candida parapsilosis ATCC 22019. The following applies: Lodderomyces parapsilosis.
Another assay concerns Aspergillus fumigatus. Kind of assay: Antifungal activity against Aspergillus fumigatus.
Assay [10] relates to Candida albicans. The assay can be described thus: Antifungal activity against Candida albicans ATCC 90023.
For assay [11], the system named is Candida albicans. Kind of assay: Antifungal activity against drug-resistant Candida albicans.

In brackets after ≈: the same amount, converted by molar mass. Activity calls are given as the source filed them. The rule behind the calls is not given here.

For `CCn1cc(C(=O)O)c(=O)c2cc(F)c(N3CCNCC3)cc21` [NORFLOXACIN], the MIC amounted to 3 µM (≈ 0.958 µg/mL) against Staphylococcus aureus [1]; 802 µM (≈ 256 µg/mL) with Acinetobacter baumannii; 2 µM (≈ 0.639 µg/mL) with Staphylococcus aureus [2]; 25 µM (≈ 7.98 µg/mL) in the assay with Staphylococcus aureus [3]; 802 µM (≈ 256 µg/mL) against Enterococcus faecalis; 25 µM (≈ 7.98 µg/mL) in the assay with Escherichia coli [4]. For the same molecule, the MIC was found to be 1600 µM (≈ 512 µg/mL) with Pseudomonas aeruginosa [6]; 802 µM (≈ 256 µg/mL) with Klebsiella pneumoniae; 1600 µM (≈ 512 µg/mL) against Escherichia coli [7]; 50 µM (≈ 16 µg/mL) in the assay on Pseudomonas aeruginosa [8]; 25 µM (≈ 7.98 µg/mL) against Staphylococcus aureus [9]. In the assay on Staphylococcus aureus [5], the result was inactive.

Regarding `CC(=O)Cn1cc(-c2csc(N)n2)c(=O)c2cc(F)c(Cl)cc21`, the MIC was 365 µM (≈ 128 µg/mL) with Staphylococcus aureus [1]; 365 µM (≈ 128 µg/mL) against Acinetobacter baumannii; 182 µM (≈ 64 µg/mL) in the assay with Staphylococcus aureus [2]; 365 µM (≈ 128 µg/mL) with Staphylococcus aureus [3]; 365 µM (≈ 128 µg/mL) with Enterococcus faecalis; 365 µM (≈ 128 µg/mL) in the assay with Candida tropicalis. Further, the MIC with Escherichia coli [4] amounted to 182 µM (≈ 64 µg/mL); with Candida parapsilosis, 182 µM (≈ 64 µg/mL); in the assay on Aspergillus fumigatus, 365 µM (≈ 128 µg/mL); in the assay on Pseudomonas aeruginosa [6], 91 µM (≈ 32 µg/mL); against Klebsiella pneumoniae it was 729 µM (≈ 256 µg/mL); in the assay with Escherichia coli [7] it was 729 µM (≈ 256 µg/mL). The MIC against Pseudomonas aeruginosa [8] worked out at 91 µM (≈ 32 µg/mL); in the assay with Staphylococcus aureus [9], 182 µM (≈ 64 µg/mL); in the assay on Candida albicans [10], 91 µM (≈ 32 µg/mL); in the assay with Candida albicans [11], 91 µM (≈ 32 µg/mL).

In the case of `Cc1nc(-c2c[nH]c3cc(F)c(F)cc3c2=O)cs1`, the MIC turned out to be 921 µM (≈ 256 µg/mL) in the assay on Staphylococcus aureus [1]; 1840 µM (≈ 513 µg/mL) in the assay on Acinetobacter baumannii; 460 µM (≈ 128 µg/mL) against Staphylococcus aureus [2]; 460 µM (≈ 128 µg/mL) against Staphylococcus aureus [3]; 460 µM (≈ 128 µg/mL) with Enterococcus faecalis; 921 µM (≈ 256 µg/mL) in the assay on Candida tropicalis. Moreover, the MIC against Escherichia coli [4] is 460 µM (≈ 128 µg/mL); in the assay with Candida parapsilosis, 1840 µM (≈ 513 µg/mL); against Aspergillus fumigatus it was 921 µM (≈ 256 µg/mL); against Pseudomonas aeruginosa [6] it was 921 µM (≈ 256 µg/mL); in the assay on Klebsiella pneumoniae, 1840 µM (≈ 513 µg/mL); in the assay with Escherichia coli [7], 1840 µM (≈ 513 µg/mL). Further, the MIC against Pseudomonas aeruginosa [8] is 460 µM (≈ 128 µg/mL); in the assay on Staphylococcus aureus [9] it was 1840 µM (≈ 513 µg/mL); in the assay with Candida albicans [10] it was 115 µM (≈ 32 µg/mL); in the assay with Candida albicans [11], 460 µM (≈ 128 µg/mL).

With `CC(=O)Cn1cc(-c2csc(N)n2)c(=O)c2cc(F)ccc21`, the MIC with Staphylococcus aureus [1] came out at 404 µM (≈ 128 µg/mL); against Acinetobacter baumannii it was 807 µM (≈ 256 µg/mL); in the assay with Staphylococcus aureus [2], 202 µM (≈ 64.1 µg/mL); against Staphylococcus aureus [3], 404 µM (≈ 128 µg/mL); in the assay on Enterococcus faecalis, 807 µM (≈ 256 µg/mL); in the assay with Candida tropicalis, 404 µM (≈ 128 µg/mL). In addition, the MIC against Escherichia coli [4] came out at 404 µM (≈ 128 µg/mL); in the assay with Candida parapsilosis it was 1620 µM (≈ 513 µg/mL); in the assay with Aspergillus fumigatus, 404 µM (≈ 128 µg/mL); in the assay with Pseudomonas aeruginosa [6], 404 µM (≈ 128 µg/mL); against Klebsiella pneumoniae it was 807 µM (≈ 256 µg/mL); against Escherichia coli [7], 404 µM (≈ 128 µg/mL). Besides, the MIC against Pseudomonas aeruginosa [8] was found to be 404 µM (≈ 128 µg/mL); in the assay on Staphylococcus aureus [9], 404 µM (≈ 128 µg/mL); with Candida albicans [10], 51 µM (≈ 16.2 µg/mL); against Candida albicans [11] it was 404 µM (≈ 128 µg/mL).

Consider `C/C(Cn1cc(-c2csc(N)n2)c(=O)c2cccc(F)c21)=N\NC(N)=S`, for which the MIC in the assay on Staphylococcus aureus [1] is 21 µM (≈ 8.2 µg/mL); against Acinetobacter baumannii, 656 µM (≈ 256 µg/mL); in the assay with Staphylococcus aureus [2], 41 µM (≈ 16 µg/mL); in the assay on Staphylococcus aureus [3] it was 41 µM (≈ 16 µg/mL); in the assay with Enterococcus faecalis, 328 µM (≈ 128 µg/mL); with Candida tropicalis, 656 µM (≈ 256 µg/mL). Moreover, the MIC turned out to be 328 µM (≈ 128 µg/mL) in the assay on Escherichia coli [4]; 656 µM (≈ 256 µg/mL) with Candida parapsilosis; 1310 µM (≈ 513 µg/mL) in the assay with Aspergillus fumigatus; 656 µM (≈ 256 µg/mL) against Pseudomonas aeruginosa [6]; 328 µM (≈ 128 µg/mL) against Klebsiella pneumoniae; 656 µM (≈ 256 µg/mL) against Escherichia coli [7]. The MIC against Pseudomonas aeruginosa [8] is 328 µM (≈ 128 µg/mL); in the assay with Staphylococcus aureus [9] it was 21 µM (≈ 8.2 µg/mL); against Candida albicans [10], 328 µM (≈ 128 µg/mL); against Candida albicans [11], 656 µM (≈ 256 µg/mL).

`C/C(Cn1cc(-c2csc(C)n2)c(=O)c2cc(F)ccc21)=N\NC(N)=S`: the MIC against Staphylococcus aureus [1] was 658 µM (≈ 256 µg/mL); in the assay on Acinetobacter baumannii, 658 µM (≈ 256 µg/mL); with Staphylococcus aureus [2], 658 µM (≈ 256 µg/mL); with Staphylococcus aureus [3] it was 658 µM (≈ 256 µg/mL); in the assay with Enterococcus faecalis, 1320 µM (≈ 513 µg/mL); in the assay on Candida tropicalis, 1320 µM (≈ 513 µg/mL). The MIC in the assay on Escherichia coli [4] amounted to 658 µM (≈ 256 µg/mL); in the assay on Candida parapsilosis it was 329 µM (≈ 128 µg/mL); in the assay on Aspergillus fumigatus, 658 µM (≈ 256 µg/mL); with Pseudomonas aeruginosa [6], 658 µM (≈ 256 µg/mL); with Klebsiella pneumoniae, 165 µM (≈ 64.3 µg/mL); with Escherichia coli [7] it was 658 µM (≈ 256 µg/mL). The MIC against Pseudomonas aeruginosa [8], against Staphylococcus aureus [9], against Candida albicans [10] and with Candida albicans [11] was 658 µM (≈ 256 µg/mL) throughout.

With `CC(=O)Cn1cc(-c2csc(C)n2)c(=O)c2cc(F)cc(F)c21`, the MIC against Staphylococcus aureus [1] was determined as 1530 µM (≈ 513 µg/mL); against Acinetobacter baumannii, 766 µM (≈ 256 µg/mL); in the assay on Staphylococcus aureus [2], 1530 µM (≈ 513 µg/mL); against Staphylococcus aureus [3], 1530 µM (≈ 513 µg/mL); against Enterococcus faecalis, 1530 µM (≈ 513 µg/mL); against Candida tropicalis, 1530 µM (≈ 513 µg/mL). In addition, the MIC against Escherichia coli [4] was 1530 µM (≈ 513 µg/mL); with Candida parapsilosis, 1530 µM (≈ 513 µg/mL); against Aspergillus fumigatus, 383 µM (≈ 128 µg/mL); with Pseudomonas aeruginosa [6] it was 1530 µM (≈ 513 µg/mL); with Klebsiella pneumoniae it was 383 µM (≈ 128 µg/mL); in the assay on Escherichia coli [7], 1530 µM (≈ 513 µg/mL). The minimum inhibitory concentration (MIC) is 1530 µM (≈ 513 µg/mL) in the assay with Pseudomonas aeruginosa [8], 1530 µM (≈ 513 µg/mL) against Staphylococcus aureus [9], 766 µM (≈ 256 µg/mL) in the assay with Candida albicans [10] and 1530 µM (≈ 513 µg/mL) with Candida albicans [11].
